The text below walks through data of ChEMBL document CHEMBL1150598, “Decipinin A and decipienolides A and B: new bioactive metabolites from the coprophilous fungus Podospora decipiens” (2002).

In one assay the test system is Bacillus subtilis. As to the kind of experiment: Antimicrobial activity against Bacillus subtilis ATCC 6051 at 200 ug/disk after 4 days by standard disk assay. Type of assay: functional. The settings on record: ATCC 6051, 96 h, read-out: IZ.
A further assay deals with Ascobolus. As to the kind of experiment: Antimicrobial activity against Ascobolus furfuraceus NRRL 6460 after 4 days by standard disk assay. Type of assay: functional, organism-based.
The test system of a further assay is Sordaria fimicola. As to the kind of experiment: Antimicrobial activity against Sordaria fimicola NRRL 6459 after 4 days by standard disk assay. The format is functional, organism-based.
The next assay deals with Candida albicans. As to the kind of experiment: Antimicrobial activity against Candida albicans ATCC 90029 after 4 days by standard disk assay. Type of assay: functional, organism-based.
A further assay has as its system Fusarium verticillioides. As to the kind of experiment: Antimicrobial activity against Fusarium verticillioides ATCC 24378 at 250 ug/disk after 4 days by standard disk assay. The settings on record: ATCC 24378, 96 h, read-out: IZ. Type of assay: functional.

The source made the active and inactive calls. No cut-off for these calls is given here.

As to `C=C1C(OC(=O)C(C)(C)C(C)O)CC2CC1C21CO[C@@]2(C[C@H](C)C(=O)O2)C1.C=C1C(OC(=O)C(C)(C)C(C)O)CC2CC1C21CO[C@]2(C[C@H](C)C(=O)O2)C1` (some centres undefined) [DECIPIENOLIDE A AND B], the zone of inhibition at 200 µg/disc with Bacillus subtilis came to 9 mm. Further, the result in the assay on Ascobolus, in the assay on Sordaria fimicola and with Candida albicans was inactive.

`CCC/C=C/C=C/C=C/C(=O)O[C@@H]1C2=CC(=O)C(C)(OC(C)=O)C(=O)C2=CO[C@]12O[C@H](C)CC[C@@H]2OC(=O)CCC(=O)O` (some centres undefined) [DECIPININ A]: the zone of inhibition at 250 µg/disc in the assay on Fusarium verticillioides is 22 mm. Also, in the assay with Bacillus subtilis, the zone of inhibition at 200 µg/disc was 9 mm. Moreover, the outcome in the assay with Ascobolus, in the assay on Sordaria fimicola and with Candida albicans was inactive.
